Values joined by “and” are separate entries in the source; they are usually repeats but may differ in a detail not shown here. Identical values can stand only once. Inconclusive results and toxic doses are left out. The calls were made as follows: active = survival T/C of 150% or more; inactive = T/C below 125% in these data.
System: P388 leukemia ip, CD2F1 mice, survival T/C
Test: NCI In Vivo Anticancer Drug Screen. Data for tumor model P388 Leukemia (intraperitoneal) in CD2F1 (CDF1) mice
Details: endpoint: median survival time, higher = longer survival
Experimental: The antitumor activity of compounds was measured in mice bearing transplantable tumors. Survival or tumor size were measured and the results are expressed as the measurement made in the treated group (T) divided by the measurement made in the vehicle treated control group (C). The tumor model used in this assay is P388 Leukemia (intraperitoneal) in CD2F1 (CDF1) mice

[1] = dose: 50.0 mg/kg/injection, schedule: Q01DX005 (ip), vehicle: Klucel (hydroxypropylcellulose) (HPC)
[2] = dose: 100.0 mg/kg/injection, schedule: Q01DX005 (ip), vehicle: Klucel (hydroxypropylcellulose) (HPC)
[3] = dose: 200.0 mg/kg/injection, schedule: Q01DX005 (ip), vehicle: Klucel (hydroxypropylcellulose) (HPC)
[4] = dose: 60.0 mg/kg/injection, schedule: Q01DX005 (ip), vehicle: Klucel (hydroxypropylcellulose) (HPC)
[5] = dose: 120.0 mg/kg/injection, schedule: Q01DX005 (ip), vehicle: Klucel (hydroxypropylcellulose) (HPC)
[6] = dose: 240.0 mg/kg/injection, schedule: Q01DX005 (ip), vehicle: Klucel (hydroxypropylcellulose) (HPC)
[7] = dose: 50.0 mg/kg/injection, schedule: Q01DX005 (ip), vehicle: saline with Tween-80
[8] = dose: 100.0 mg/kg/injection, schedule: Q01DX005 (ip), vehicle: saline with Tween-80
[9] = dose: 200.0 mg/kg/injection, schedule: Q01DX005 (ip), vehicle: saline with Tween-80
[10] = dose: 60.0 mg/kg/injection, schedule: Q01DX005 (ip), vehicle: saline with Tween-80
[11] = dose: 120.0 mg/kg/injection, schedule: Q01DX005 (ip), vehicle: saline with Tween-80
[12] = dose: 240.0 mg/kg/injection, schedule: Q01DX005 (ip), vehicle: saline with Tween-80
[13] = dose: 100.0 mg/kg/injection, schedule: Q04DX003 (ip), vehicle: saline with Tween-80
[14] = dose: 200.0 mg/kg/injection, schedule: Q04DX003 (ip), vehicle: saline with Tween-80

Measured: T/C

Cc1c2c(cc3c4ccccc4n(C)c13)C(=O)OC2=O
inactive: dose: 0.78 mg/kg/injection, schedule: Q01DX005 (ip), vehicle: Klucel (hydroxypropylcellulose) (HPC) 99 % of control | dose: 1.56 mg/kg/injection, schedule: Q01DX005 (ip), vehicle: Klucel (hydroxypropylcellulose) (HPC) 93 % of control | dose: 3.12 mg/kg/injection, schedule: Q01DX005 (ip), vehicle: Klucel (hydroxypropylcellulose) (HPC) 89 % of control | dose: 6.25 mg/kg/injection, schedule: Q01DX005 (ip), vehicle: Klucel (hydroxypropylcellulose) (HPC) 89 % of control | [1] 89 % of control | [2] 88 % of control | [3] 97 % of control

CC(O)CNC(=O)Nc1ccccc1 (configuration not stated)
inactive: [4] 97 % of control | [5] 95 % of control | [6] 88 % of control

COC(=O)CCC(Br)(Br)Br
inactive: dose: 50.0 mg/kg/injection, schedule: Q01DX009 (ip), vehicle: Klucel (hydroxypropylcellulose) (HPC) 94 % of control | dose: 100.0 mg/kg/injection, schedule: Q01DX009 (ip), vehicle: Klucel (hydroxypropylcellulose) (HPC) 99 % of control

C/C([O-])=c1\c(C)nn2ccc[n+]12
inactive: dose: 25.0 mg/kg/injection, schedule: Q01DX005 (ip), vehicle: saline with Tween-80 100 % of control | [7] 108 % of control | [8] 96 % of control | [9] 99 % of control

COc1ccc2c(N=[N+]=[N-])cc(C)nc2c1
inactive: dose: 30.0 mg/kg/injection, schedule: Q01DX005 (ip), vehicle: saline with Tween-80 97 % of control | [10] 100 % of control and 91 % of control

CC12OC1C(=O)C1C3C=CC(C3)C1C2=O (configuration not stated)
inactive: dose: 75.0 mg/kg/injection, schedule: Q04DX002 (ip), vehicle: saline with Tween-80 96 % of control | dose: 150.0 mg/kg/injection, schedule: Q04DX002 (ip), vehicle: saline with Tween-80 96 % of control | dose: 300.0 mg/kg/injection, schedule: Q04DX002 (ip), vehicle: saline with Tween-80 97 % of control

Nc1ccc2c(-c3ccccc3)cc(=O)[nH]c2c1
inactive: [1] 95 % of control | [2] 100 % of control

Cc1cn2c(n1)Nc1sc3c(c1C2)CCCC3
inactive: [10] 101 % of control | [11] 103 % of control | [12] 100 % of control

O=S1(=O)C2CCC(Cl)C1CCC2Cl (configuration not stated)
inactive: dose: 75.0 mg/kg/injection, schedule: Q04DX003 (ip), vehicle: Klucel (hydroxypropylcellulose) (HPC) 98 % of control | dose: 150.0 mg/kg/injection, schedule: Q04DX003 (ip), vehicle: Klucel (hydroxypropylcellulose) (HPC) 100 % of control

COc1ccc(/C=C2\CCN=C2c2ccccc2)cc1OC
inactive: [1] 101 % of control | [2] 97 % of control | [3] 96 % of control

O=C1NCCc2ccc(cc2)OC2CCNC2C(=O)N2CCCC12 (configuration not stated)
inactive: dose: 12.5 mg/kg/injection, schedule: Q01DX005 (ip), vehicle: Klucel (hydroxypropylcellulose) (HPC) 96 % of control | dose: 25.0 mg/kg/injection, schedule: Q01DX005 (ip), vehicle: Klucel (hydroxypropylcellulose) (HPC) 107 % of control | [1] 100 % of control

CC12OC(=O)C(C(N)=O)=C1C=C(c1ccccc1)CC2c1ccccc1 (configuration not stated)
inactive: [10] 96 % of control | [11] 96 % of control | [12] 89 % of control

Cc1ccc(O)c(CN2CCN(Cc3cc(C)ccc3O)CC2)c1
inactive: [4] 86 % of control | [5] 91 % of control | [6] 88 % of control

N#Cc1c2ccccc2nc2ccccc12
inactive: [7] 100 % of control | [8] 96 % of control | [9] 89 % of control

C(=C\c1nc2ccccc2s1)/c1ccc2c(c1)OCO2
inactive: dose: 50.0 mg/kg/injection, schedule: Q01DX009 (ip), vehicle: saline with Tween-80 90 % of control | dose: 100.0 mg/kg/injection, schedule: Q01DX009 (ip), vehicle: saline with Tween-80 90 % of control | dose: 200.0 mg/kg/injection, schedule: Q01DX009 (ip), vehicle: saline with Tween-80 100 % of control

COc1cc(-c2nn3c(C)c(-c4ccccc4)nc3s2)cc(OC)c1OC
inactive: [10] 101 % of control | [11] 92 % of control | [12] 102 % of control

COCC1(CCC(C)=C(C)C)Nc2ccc(C(=O)O)cc2CC1Cl (configuration not stated)
inactive: dose: 1.25 mg/kg/injection, schedule: Q01DX005 (ip), vehicle: Klucel (hydroxypropylcellulose) (HPC) 98 % of control | dose: 2.5 mg/kg/injection, schedule: Q01DX005 (ip), vehicle: Klucel (hydroxypropylcellulose) (HPC) 101 % of control

C=CCc1cc2c(cc1C(C)c1ccc(OC)cc1)OCO2 (configuration not stated)
inactive: [7] 106 % of control | [8] 109 % of control | [9] 117 % of control

COC(=O)C(O)c1cccc(OC)c1 (configuration not stated)
inactive: [13] 113 % of control | [14] 100 % of control | dose: 400.0 mg/kg/injection, schedule: Q04DX003 (ip), vehicle: saline with Tween-80 109 % of control

O/N=C(/Cc1nc2cc(Cl)c(Cl)cc2nc1C/C(=N/O)c1cccnc1)c1cccnc1
inactive: [10] 102 % of control | [11] 107 % of control | [12] 107 % of control

COCc1ccccc1-n1nccc1S(C)=O (configuration not stated)
inactive: [10] 106 % of control | [11] 98 % of control | [12] 106 % of control

C=CC(C1=CC(=O)C(OC)=CC1=O)c1ccccc1 (configuration not stated)
inactive: dose: 2.5 mg/kg/injection, schedule: Q01DX009 (ip), vehicle: saline with Tween-80 101 % of control | dose: 5.0 mg/kg/injection, schedule: Q01DX009 (ip), vehicle: saline with Tween-80 103 % of control | dose: 10.0 mg/kg/injection, schedule: Q01DX009 (ip), vehicle: saline with Tween-80 102 % of control

N=c1ccn2c(n1)OC1C(O)C(CCl)OC12 (configuration not stated)
inactive: dose: 6.25 mg/kg/injection, schedule: Q01DX009 (ip), vehicle: saline 108 % of control | dose: 12.5 mg/kg/injection, schedule: Q01DX009 (ip), vehicle: saline 111 % of control | dose: 25.0 mg/kg/injection, schedule: Q01DX009 (ip), vehicle: saline 106 % of control and 92 % of control | dose: 50.0 mg/kg/injection, schedule: Q01DX009 (ip), vehicle: saline 103 % of control and 106 % of control | dose: 100.0 mg/kg/injection, schedule: Q01DX009 (ip), vehicle: saline 100 % of control and 107 % of control | dose: 200.0 mg/kg/injection, schedule: Q01DX009 (ip), vehicle: saline 110 % of control and 117 % of control

CCOC(=O)c1nc(OCC)nc(OCC)c1C#CCO
inactive: dose: 12.5 mg/kg/injection, schedule: Q01DX009 (ip), vehicle: distilled water + Tween-80 95 % of control | dose: 25.0 mg/kg/injection, schedule: Q01DX009 (ip), vehicle: distilled water + Tween-80 93 % of control | dose: 50.0 mg/kg/injection, schedule: Q01DX009 (ip), vehicle: distilled water + Tween-80 102 % of control | dose: 100.0 mg/kg/injection, schedule: Q01DX009 (ip), vehicle: distilled water + Tween-80 98 % of control

Cc1ccc(Cl)c([N+](=O)[O-])c1N
inactive: [13] 104 % of control | [14] 104 % of control

COC(=O)Cc1nc2ccccc2s1
inactive: [10] 102 % of control | [11] 104 % of control | [12] 103 % of control

COc1ccc(Cc2coc3ccccc3c2=O)cc1OC
inactive: [10] 102 % of control | [11] 97 % of control | [12] 97 % of control

Nc1nnc(CCCCCCCc2nnc(N)o2)o1
inactive: [10] 104 % of control | [11] 99 % of control | [12] 105 % of control

Reference: PubChem BioAssay AID330 (DTP/NCI, 2004)
